In patent publication US9440963B2, “Compositions, formulations and methods for treating ocular diseases” (Aerpio Therapeutics Inc., priority 2013, dated 2016):
Values after ≈ are worked out from the molar mass of the structure shown. Values joined by “and” are separate entries in the source; they are usually repeats but may differ in a detail not shown here. Equal entries are not always repeated.

Experiments:
[1] = system: human subjects with visual acuity loss due to diabetic macular edema; test: Central foveal/retinal thickness by ocular coherence tomography in diabetic macular edema study (Example 35); format: in vivo
Description: At any time during the course of the study, investigators could administer additional therapy consisting of intravitreal injection of an anti-VEGF agent, for example, ranibizumab, bevacizumab and/or aflibercept, if considered by the investigator to be medically necessary. Retinal thickness as measured by ocular coherence tomography and best corrected visual acuity as measured by a standard vision test (ETDRS) were assessed at regular intervals during the 28 day active treatment phase and through the 2 month post-treatment observation phase, (Screening, Day 1 [baseline], Day 7, Day 14, Day 21, Day 28, Day 42, Day 56 and Day 84). The main efficacy outcomes for the study were change in CRT and visual acuity over time with treatment. […] The mean change in Central Foveal Thickness was −289 μm, approximately double the reduction seen after ranibizumab injection in the study in FIG. 1. FIG. 5 represents the results of a single patient. The eye having the greater Central Foveal Thickness was chosen as the Study Eye. […] At week 3 (21 days, indicated by arrow) the fellow eye was treated with 0.5 mg of ranibizumab by injection. At week 6 (42 days, indicated by arrow) the treated eye was treated with 0.5 mg of ranibizumab. […] As a result, there was a pronounced reduction in CFT in the study eye from day 21 to day 28 (approximately 250 µm). […] At week 6, the study eye was treated with an intravitreal injection of 0.5 mg of ranibizumab. […] Compared to the study depicted in FIG. 1 wherein the average change in CFT at one month after ranibizumab injection was approximately […], the combination disclosed method provided substantially greater reductions at 2-4 weeks following ranibizumab injection. FIG. 6 represents the results of a single patient. The eye having the greater Central Foveal Thickness was chosen as the Study Eye. […] At week 4 (28 days, indicated by arrow) the fellow eye was rescued with 2 mg of aflibercept. […] At week 6 (42 days, indicated by arrow) the study eye was rescued with 2 mg of aflibercept. […] Unlike the results depicted for the ranibizumab protocol, there was no evidence of systemically delivered aflibercept to the Fellow Eye.

[2] = Room temperature aqueous solubility with solubilizing agents (Example 36); format: physicochemical
Text: The room temperature aqueous solubility (mg/mL) of the a compound (4-{(S)-2-[(S)-2-methoxycarbonylamino)-3-phenylpropanamido]-2-[2-(thiophen-2-yl)thiazol-4-yl]ethyl}phenylsulfamic acid) in water, HPβCD, Poloxamer 407, and sulfobutylether-β-cyclodextrin, is provided in TABLE XXVII. Solubility in saline for the test compound is reduced presumably due to the common ion effect.
The solubility (mg/mL) of the test compound in mixtures of HPβCD and PEG400 is illustrated in TABLE XXVIII.

| solubility in saline ([2]; room temperature, compared with water) | Solubility ([2]; aqueous with cosolvent or surfactant or cyclodextrin) [mg/mL] | Solubility ([2]; water) [mg/mL] | Structure (SMILES) | Central Foveal Reduction, single patient eye ([1]; 5 mg subcutaneously twice daily for 28 days, subsequently ranibizumab (0.3 or 0.5 mg) or aflibercept (2 mg) intravitreal, 14-28 days post ranibizumab or aflibercept, 7 eyes) | fall of Central Foveal Thickness of the fellow eye ([1]; single patient (FIG. 5), 5 mg s.c. twice daily from day one, fellow eye 0.5 mg ranibizumab at week 3, by week 4 (28 days)) [μm] | overall reduction in CFT of the study eye ([1]; single patient (FIG. 5), by week 8, after 0.5 mg ranibizumab at week 6) | reduction in CFT in the study eye ([1]; single patient (FIG. 5), from day 21 to day 28) | reduction of CFT in the non-treated eye from onset of the study ([1]; single patient (FIG. 6)) [μm] | reduction of CFT in the study eye from onset of the study ([1]; single patient (FIG. 6)) | CFT reduction of the Fellow eye after rescue ([1]; single patient (FIG. 6), 5 mg s.c. twice daily from day one, fellow eye rescued with 2 mg aflibercept at week 4) | CFT reduction of the Study eye after rescue ([1]; single patient (FIG. 6), study eye rescued with 2 mg aflibercept at week 6) |
| --- | --- | --- | --- | --- | --- | --- | --- | --- | --- | --- | --- |
| reduced | – | – | COC(=O)N[C@@H](Cc1ccccc1)C(=O)N[C@@H](Cc1ccc(NS(=O)(=O)O)cc1)c1csc(-c2cccs2)n1 | 50-100 μm and 150-200 μm and 200-250 μm and 300-350 μm and 350-400 μm and 450-500 μm | 350 | approximately 500 μm | approximately 250 µm | ~280 | approximately 300 μm | approximately 400 μm | approximately 300 μm |
| – | 42 (≈ 71.6 mM) | 38 (≈ 64.8 mM) | COC(=O)N[C@@H](Cc1ccccc1)C(=O)N[C@@H](Cc1ccc(NS(=O)(=O)O)cc1)c1nc(-c2cccs2)cs1 | – | – | – | – | – | – | – | – |
